# Values of other authors, collected in US20080200520A1, “Iron Modulators” (BTG INTERNATIONAL LIMITED, priority 2005, published 2008).
# Structures can show the parent of a compound that is named as a salt.
# Legend:
# [1] = comparative compounds, commercial lots
# [2] = comparative compounds, commercial lots; solvent in which soluble
# [3] = comparative compounds, commercial lots; remark: listed apart in the source
# mice = details: oral treatment
Compound,Stability [1],Solubility [2],Potential Hazards [3],protection from the effects of MPTP (mice)
Oc1c(I)cc(Cl)c2cccnc12 [Clioquinol],stable,DMSO,harmful. Sensitisation by inhalation and skin contact. Causes severe irritation. Readily absorbed through skin. Target organs: eyes and nerves,protect mice from the effects of MPTP
Cc1c(O)c(=O)ccn1C [Deferiprone],stable,water,,
CC(=O)N(O)CCCCCNC(=O)CCC(=O)N(O)CCCCCNC(=O)CCC(=O)N(O)CCCCCN [Desferrioxamine Mesylate],stable,water,none,
